The subject of data set [1] is A549. As to the kind of experiment: Antiproliferative activity against human A549 cells incubated for 72 hrs by MTT assay. The format is functional, cell-based. The conditions noted are these: A549, 72 h. For orientation: Tetrazolium assays rely on reduction of a dye to a coloured formazan, in cell work by metabolically active cells.
Data set [2] in a line: Toxicity in nude mouse xenografted with human HepG2 cells assessed as change in body weight at 20 mg/kg administrated daily for 50 days post implantation. The format is organism-based. The conditions noted are these: in vivo, 1200 h.
In data set [3] the test system is HepG2. As to the kind of experiment: Antitumor activity against human HepG2 cells xenografted in nude mouse assessed as inhibition of tumor at 40 mg/kg administrated daily for 30 days post implantation by vernier caliper analysis relative to control. It is filed as functional. The conditions noted are these: HepG2, 720 h. On the technique in general: Xenograft models place foreign cells or tissue in a host animal.

A short description of data set [4]: Toxicity in nude mouse xenografted with human HepG2 cells assessed as change in body weight at 40 mg/kg administrated daily for 50 days post implantation. The format is organism-based. The conditions noted are these: in vivo, 1200 h.
The subject of data set [5] is DU-145. As to the kind of experiment: Antiproliferative activity against human DU145 cells incubated for 72 hrs by MTT assay. It is filed as functional, cell-based. Conditions: DU-145, 72 h.
For data set [6], the system named is MCF7. Description: Antiproliferative activity against human MCF7 cells incubated for 72 hrs by MTT assay. The format is functional, cell-based. Conditions: MCF7, 72 h.
For data set [7], the system named is SH-SY5Y. Description: Antiproliferative activity against human SH-SY5Y cells incubated for 72 hrs by MTT assay. The format is functional, cell-based.
Data set [8] concerns HepG2. As to the kind of experiment: Antiproliferative activity against human HepG2 cells incubated for 72 hrs by MTT assay. It is filed as functional, cell-based. The conditions noted are these: HepG2, 72 h.
The test system of data set [9] is HepG2. As to the kind of experiment: Induction of apoptosis in human HepG2 cells assessed as cell detachment at 2 to 8 uM incubated for 48 hrs by optical microscopic method. The format is functional, cell-based.
A short description of data set [10]: Cytotoxicity against human CCC-HPF1 cells assessed as decrease in cell viability incubated for 72 hrs by MTT assay. The format is cell-based. The conditions noted are these: CCC-HPF-1, 72 h.
Data set [11] relates to HepG2. Description: Induction of apoptosis in human HepG2 cells assessed as necrotic cells at 2 times IC50 incubated for 48 hrs by Annexin V-FITC and PI staining based flow cytometric analysis (reference value: 1.36%). It is filed as functional.
Data set [12] concerns HepG2. As to the kind of experiment: Disruption of mitochondrial membrane potential in human HepG2 cells assessed as appearance of cell desquamation at 1.5 uM to 5 uM incubated for 48 hrs by JC-1 dye based LSCM analysis. The format is functional.
Data set [13] deals with HepG2. As to the kind of experiment: Induction of apoptosis in human HepG2 cells assessed as early apoptotic cells at 2 times IC50 incubated for 48 hrs by Annexin V-FITC and PI staining based flow cytometric analysis (reference value: 1.75%). It is filed as functional.
Data set [14] deals with HepG2. Description: Induction of apoptosis in human HepG2 cells assessed as necrotic cells at 0.5 times IC50 incubated for 48 hrs by Annexin V-FITC and PI staining based flow cytometric analysis (reference value: 1.36%). The format is functional. For orientation: Flow cytometry measures light scatter and fluorescence of single cells or particles in a stream.
Data set [15] has as its system HepG2. Description: Induction of apoptosis in human HepG2 cells assessed as late apoptotic cells at 2 times IC50 incubated for 48 hrs by Annexin V-FITC and PI staining based flow cytometric analysis (reference value: 3.47%). It is filed as functional.
Data set [16] concerns the target Vascular endothelial growth factor receptor 2 (Homo sapiens, UniProt P35968). As to the kind of experiment: Inhibition of VEGFR2 (unknown origin) using TK substrate incubated for 60 mins by FRET assay.
For data set [17], the system named is HepG2. Description: Disruption of mitochondrial membrane potential in human HepG2 cells at 1.5 uM to 5 uM incubated for 48 hrs by JC-1 dye based fluorescence spectrophotometric analysis. It is filed as functional, cell-based.
Data set [18] concerns HepG2. Description: Induction of apoptosis in human HepG2 cells assessed as early apoptotic cells at IC50 incubated for 48 hrs by Annexin V-FITC and PI staining based flow cytometric analysis (reference value: 1.75%). The format is functional.
Data set [19] concerns HepG2. As to the kind of experiment: Induction of apoptosis in human HepG2 cells assessed as viable cells at 0.5 times IC50 incubated for 48 hrs by Annexin V-FITC and PI staining based flow cytometric analysis (reference value: 93.4%). The format is functional.
For data set [20], the system named is HepG2. As to the kind of experiment: Antitumor activity against human HepG2 cells xenografted in nude mouse assessed as suppression of tumor volume at 20 to 40 mg/kg administrated daily for 50 days post implantation by vernier caliper analysis. It is filed as functional, organism-based.
The test system of data set [21] is HepG2. As to the kind of experiment: Induction of apoptosis in human HepG2 cells assessed as viable cells at IC50 incubated for 48 hrs by Annexin V-FITC and PI staining based flow cytometric analysis (reference value: 93.4%). It is filed as functional.
The subject of data set [22] is HepG2. Description: Induction of apoptosis in human HepG2 cells assessed as decrease in cell number at 2 to 8 uM incubated for 48 hrs by optical microscopic method. The format is functional, cell-based.
In data set [23] the test system is HepG2. As to the kind of experiment: Induction of apoptosis in human HepG2 cells assessed as necrotic cells at IC50 incubated for 48 hrs by Annexin V-FITC and PI staining based flow cytometric analysis (reference value: 1.36%). It is filed as functional.
Data set [24] concerns HepG2. As to the kind of experiment: Induction of apoptosis in human HepG2 cells assessed as early apoptotic cells at 0.5 times IC50 incubated for 48 hrs by Annexin V-FITC and PI staining based flow cytometric analysis (reference value: 1.75%). The format is functional.
In data set [25] the test system is HepG2. Description: Induction of apoptosis in human HepG2 cells assessed as viable cells at 2 times IC50 incubated for 48 hrs by Annexin V-FITC and PI staining based flow cytometric analysis (reference value: 93.4%). It is filed as functional.
Data set [26] relates to HepG2. As to the kind of experiment: Antitumor activity against human HepG2 cells xenografted in nude mouse assessed as inhibition of tumor growth administrated daily for 50 days post implantation by vernier caliper analysis. It is filed as functional.
For data set [27], the system named is HepG2. Description: Induction of apoptosis in human HepG2 cells assessed as late apoptotic cells at IC50 incubated for 48 hrs by Annexin V-FITC and PI staining based flow cytometric analysis (reference value: 3.47%). It is filed as functional.
Data set [28] addresses Epidermal growth factor receptor (Homo sapiens, UniProt P00533). As to the kind of experiment: Inhibition of EGFR (unknown origin) using TK substrate incubated for 60 mins by FRET assay.
Data set [29] relates to HepG2. Description: Disruption of mitochondrial membrane potential in human HepG2 cells assessed as cell shriveled at 1.5 uM to 5 uM incubated for 48 hrs by JC-1 dye based LSCM analysis. It is filed as functional.
Data set [30] relates to HepG2. As to the kind of experiment: Induction of ROS generation in human HepG2 cells assessed as increase in green fluorescence incubated for 48 hrs by DCFH-DA staining based LSCM method. The format is functional, cell-based.
Data set [31] is described as follows: Toxicity in nude mouse xenografted with human HepG2 cells assessed as change in body weight at 20 to 30 mg/kg administrated daily for 50 days post implantation. Conditions: in vivo, 1200 h. The format is organism-based.
Data set [32] relates to HepG2. Description: Induction of apoptosis in human HepG2 cells assessed as late apoptotic cells at 0.5 times IC50 incubated for 48 hrs by Annexin V-FITC and PI staining based flow cytometric analysis (reference value: 3.47%). The format is functional.
The target in data set [33] is Platelet-derived growth factor receptor beta (Homo sapiens, UniProt P09619). Description: Inhibition of PDGFRbeta (unknown origin) using TK substrate incubated for 60 mins by FRET assay.
Chain of Platelet-derived growth factor receptor beta (P09619 whole entry): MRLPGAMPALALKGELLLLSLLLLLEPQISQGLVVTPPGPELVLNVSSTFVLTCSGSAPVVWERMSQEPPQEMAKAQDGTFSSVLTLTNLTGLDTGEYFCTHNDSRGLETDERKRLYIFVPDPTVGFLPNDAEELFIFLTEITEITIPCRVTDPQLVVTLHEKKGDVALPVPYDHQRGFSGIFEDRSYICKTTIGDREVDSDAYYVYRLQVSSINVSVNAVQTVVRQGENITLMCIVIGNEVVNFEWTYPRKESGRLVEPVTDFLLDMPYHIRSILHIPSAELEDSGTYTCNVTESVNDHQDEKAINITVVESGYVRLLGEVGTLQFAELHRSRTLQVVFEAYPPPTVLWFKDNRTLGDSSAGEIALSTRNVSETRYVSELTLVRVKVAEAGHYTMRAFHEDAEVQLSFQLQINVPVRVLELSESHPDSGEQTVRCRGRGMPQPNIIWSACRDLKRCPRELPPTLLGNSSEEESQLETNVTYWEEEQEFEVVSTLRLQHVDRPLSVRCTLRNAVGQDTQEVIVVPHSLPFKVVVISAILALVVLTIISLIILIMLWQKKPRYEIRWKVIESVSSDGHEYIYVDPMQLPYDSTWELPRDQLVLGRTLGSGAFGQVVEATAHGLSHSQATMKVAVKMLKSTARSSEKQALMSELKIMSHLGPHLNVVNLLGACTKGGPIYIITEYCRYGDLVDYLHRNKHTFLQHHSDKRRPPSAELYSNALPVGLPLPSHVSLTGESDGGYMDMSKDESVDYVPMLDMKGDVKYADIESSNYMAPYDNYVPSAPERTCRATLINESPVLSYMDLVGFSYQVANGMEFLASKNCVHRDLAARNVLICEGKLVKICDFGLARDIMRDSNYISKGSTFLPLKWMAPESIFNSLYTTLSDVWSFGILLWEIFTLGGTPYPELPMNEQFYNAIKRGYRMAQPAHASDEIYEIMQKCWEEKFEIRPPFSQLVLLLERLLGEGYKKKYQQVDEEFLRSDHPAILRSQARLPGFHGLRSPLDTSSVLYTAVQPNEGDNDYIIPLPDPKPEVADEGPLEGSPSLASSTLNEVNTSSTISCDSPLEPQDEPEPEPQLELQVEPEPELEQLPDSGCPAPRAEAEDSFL
In data set [34] the test system is HepG2. As to the kind of experiment: Induction of apoptosis in human HepG2 cells assessed as cell shrinkage at 2 to 8 uM incubated for 48 hrs by optical microscopic method. The format is functional, cell-based.

Active and inactive are the calls of the source. The rule behind the calls is not given here. Some results are limits rather than exact numbers.

In general, IC50 refers to the midpoint of a concentration-inhibition curve. As a reminder, the inhibition in vivo is the drop in the measured response relative to a control, in per cent.

Chain of Epidermal growth factor receptor (P00533 whole entry): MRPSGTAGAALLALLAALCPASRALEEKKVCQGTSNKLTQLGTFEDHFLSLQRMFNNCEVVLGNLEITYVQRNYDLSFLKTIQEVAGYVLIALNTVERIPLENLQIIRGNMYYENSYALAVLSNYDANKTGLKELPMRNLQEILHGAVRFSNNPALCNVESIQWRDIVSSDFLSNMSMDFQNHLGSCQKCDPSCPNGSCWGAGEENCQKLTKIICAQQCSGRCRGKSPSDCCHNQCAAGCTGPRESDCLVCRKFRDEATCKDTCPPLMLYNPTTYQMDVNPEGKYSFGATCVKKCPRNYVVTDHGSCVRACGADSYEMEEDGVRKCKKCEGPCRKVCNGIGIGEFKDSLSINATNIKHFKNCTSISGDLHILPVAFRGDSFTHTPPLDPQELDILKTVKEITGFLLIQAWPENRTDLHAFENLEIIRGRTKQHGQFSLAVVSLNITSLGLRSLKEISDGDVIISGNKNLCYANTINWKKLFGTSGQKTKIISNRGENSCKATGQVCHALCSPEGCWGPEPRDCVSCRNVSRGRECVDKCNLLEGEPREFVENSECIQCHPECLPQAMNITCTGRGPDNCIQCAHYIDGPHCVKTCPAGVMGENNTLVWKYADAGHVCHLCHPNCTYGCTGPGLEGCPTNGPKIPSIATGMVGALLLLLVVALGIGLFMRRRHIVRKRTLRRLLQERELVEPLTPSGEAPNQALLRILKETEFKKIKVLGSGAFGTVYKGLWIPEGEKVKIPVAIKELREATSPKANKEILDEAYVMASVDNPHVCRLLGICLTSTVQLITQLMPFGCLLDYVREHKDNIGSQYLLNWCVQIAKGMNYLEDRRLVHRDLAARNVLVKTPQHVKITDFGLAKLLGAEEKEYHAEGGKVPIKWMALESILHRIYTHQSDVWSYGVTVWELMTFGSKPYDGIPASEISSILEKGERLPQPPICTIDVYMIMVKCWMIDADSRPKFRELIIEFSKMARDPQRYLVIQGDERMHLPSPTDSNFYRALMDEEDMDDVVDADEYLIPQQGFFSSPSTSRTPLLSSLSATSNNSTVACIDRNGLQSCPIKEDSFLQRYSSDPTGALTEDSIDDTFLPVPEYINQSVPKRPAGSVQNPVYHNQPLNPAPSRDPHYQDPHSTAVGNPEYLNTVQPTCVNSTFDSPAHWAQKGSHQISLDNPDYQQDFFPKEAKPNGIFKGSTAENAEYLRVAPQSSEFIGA
Chain of Vascular endothelial growth factor receptor 2 (P35968 whole entry): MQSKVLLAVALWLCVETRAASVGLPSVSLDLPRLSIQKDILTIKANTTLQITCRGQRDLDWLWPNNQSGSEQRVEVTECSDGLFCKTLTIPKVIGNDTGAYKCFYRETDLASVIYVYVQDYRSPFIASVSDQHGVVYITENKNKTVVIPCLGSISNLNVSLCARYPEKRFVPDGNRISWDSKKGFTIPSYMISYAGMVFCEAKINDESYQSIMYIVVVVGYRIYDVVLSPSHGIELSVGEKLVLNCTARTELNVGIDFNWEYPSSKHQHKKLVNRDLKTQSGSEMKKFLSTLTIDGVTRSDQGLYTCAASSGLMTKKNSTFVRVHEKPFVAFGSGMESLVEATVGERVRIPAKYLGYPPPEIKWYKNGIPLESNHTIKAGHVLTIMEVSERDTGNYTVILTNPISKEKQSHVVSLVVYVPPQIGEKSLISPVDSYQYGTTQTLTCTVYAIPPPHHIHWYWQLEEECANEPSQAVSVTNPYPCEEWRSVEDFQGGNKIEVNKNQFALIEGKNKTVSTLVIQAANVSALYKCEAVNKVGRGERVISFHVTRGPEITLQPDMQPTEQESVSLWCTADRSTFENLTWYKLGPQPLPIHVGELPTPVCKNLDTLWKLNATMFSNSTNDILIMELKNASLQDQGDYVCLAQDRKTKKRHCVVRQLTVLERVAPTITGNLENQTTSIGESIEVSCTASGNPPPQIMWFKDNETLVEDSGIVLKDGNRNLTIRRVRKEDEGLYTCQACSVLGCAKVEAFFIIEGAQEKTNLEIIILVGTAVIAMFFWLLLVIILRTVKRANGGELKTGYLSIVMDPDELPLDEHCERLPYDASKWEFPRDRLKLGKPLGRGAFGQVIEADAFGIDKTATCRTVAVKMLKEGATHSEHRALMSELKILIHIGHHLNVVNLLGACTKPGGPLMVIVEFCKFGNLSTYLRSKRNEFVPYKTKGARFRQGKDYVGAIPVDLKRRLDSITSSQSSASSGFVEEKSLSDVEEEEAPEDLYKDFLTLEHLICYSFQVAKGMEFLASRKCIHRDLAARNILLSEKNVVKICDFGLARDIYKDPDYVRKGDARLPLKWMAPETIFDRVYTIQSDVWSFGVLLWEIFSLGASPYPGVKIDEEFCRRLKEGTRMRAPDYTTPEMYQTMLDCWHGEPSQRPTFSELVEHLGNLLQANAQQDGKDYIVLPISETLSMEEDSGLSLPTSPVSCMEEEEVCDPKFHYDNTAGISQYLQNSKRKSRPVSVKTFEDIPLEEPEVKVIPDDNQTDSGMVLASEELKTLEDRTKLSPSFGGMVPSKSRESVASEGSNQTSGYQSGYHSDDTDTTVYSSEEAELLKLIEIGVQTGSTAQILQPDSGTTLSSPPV

In the case of `CNC(=O)c1cc(Oc2ccc(NC(=O)Nc3ccc(Cl)c(C(F)(F)F)c3)cc2)ccn1` [SORAFENIB], the IC50 is 25.7 µM in [1]; 83.7 µM in [5]; 38.2 µM in [6]; over 100 µM in data set [7]; 7.84 µM in data set [8]. In addition, the Activity entry was “Non-Toxic” in [2] and “Toxic” in [4]. For the same molecule, in data set [3], the inhibition in vivo at 40 mg/kg stood at 100%.

Consider `FC(F)(F)c1ccc(COc2ccc(Nc3ncnc4cc5c(cc34)OCCOCCOCCOCCO5)cc2)cc1`, for which the outcome in [9], in data set [12], in data set [17], in [20], in [22] and in [29] was Active. Besides, the outcome in [34] was Active. Further, the IC50 in data set [10] worked out at 38.2 µM; in [1] it was 8.56 µM; in data set [16], 0.0464 µM; in data set [5] it was 8.8 µM; in data set [28], 0.385 µM; in data set [6], 10 µM. For the same molecule, the results for the IC50 in data set [7], in [8] and in [33] were 2.14 µM, 3.34 µM and 0.674 µM, respectively. Also, the Activity in data set [11] is on record as 1.35%; in data set [13] it was 8.27%; in data set [14] it was 1.01%; in [15], 61.3%; in data set [18], 8.89%; in [19], 71.3%. Further, the Activity is recorded as 35% in data set [21]; 3.61% in data set [23]; 3.72% in [24]; 29.1% in [25]; “Toxic” in [4]; 52.5% in data set [27]. In addition, the values for the Activity result in [30], in data set [31] and in [32] were “Dose-dependent effect”, “Non-Toxic” and 24%, respectively. For the same molecule, in data set [3], the inhibition in vivo at 40 mg/kg was determined as 100%. Moreover, the inhibition result in data set [26] is “Dose-dependent effect”.

The record behind these values is ChEMBL document CHEMBL4304802, “Novel promising 4-anilinoquinazoline-based derivatives as multi-target RTKs inhibitors: Design, molecular docking, synthesis, and antitumor activities in vitro and vivo” (Bioorg Med Chem, 2019).
